# B1: CCL19: chemokine (R&D Systems) used as chemoattractant for T cells (protein, UniProt Q99731 22-98, looked up)
# C-C motif chemokine 19: GTNDAEDCCLSVTQKPIPGYIVRNFHYLLIKDGCRVPAVVFTTLRGRQLCAPPDQPWVERIIQRLQRTSAKMKRRSS
# Experiments:
# [1] = system: P. falciparum-infected RBCs (iRBCs) and co-cultured uninfected RBCs (uRBCs); assay: Microfluidic deformability (cell mobility) of RBCs after artesunate drug treatment; assay type: cell-based, human; settings: for separation resolution between iRBCs and uRBCs: after artesunate drug treatment; for effect on RBC deformability (cell mobility): artesunate 0.01 to 0.1 μg/ml, 2, 4 and 6 hours
# Experimental: FIG. 60 provides cell mobility plots for both infected cells (shown by diamond symbols) and co-cultured uninfected cells (shown by circle symbols) with and without Artesunate drug treatment. The drug effect was traced at 2, 4 and 6 hours after drug treatment. Measurements were done at physiologically relevant dosage from 0.01 to 0.1 μg/ml.
# The deformability of both iRBCs and uRBCs were measured at 2, 4 and 6 hours after artesunate drug treatment (FIG. 60). A synchronized culture of rings with ˜15% parasitemia was resuspended at 0.1% hematocrit in malaria culture medium containing 0.01, 0.05 or 0.1 μg/ml of artesunate.
# P. falciparum 3D7A parasites (from Malaria Research and Reference Reagent Source, American Type Culture Collection) were cultured in leukocyte-free human RBCs (Research Blood Components, Brighton Mass.) in RPMI 1640 complete medium as described (Trager and Jensen J. parasitol. 2005). Parasites cultures were synchronized by sorbitol lysis (Lambros, C 1979 J. parasitol.) two hours after merozoite invasion.
# 1× Phosphate buffered saline (PBS) was mixed with 1% w/v Bovine Serum Albumin (BSA) (Sigma-Aldrich, St. Louis, Mo.) as a stock solution and was fresh made on every experimental day. For experiments tracking fluid flow velocity, 200 nm FluoSpheres europium luminescent microspheres (Molecular Probes, Eugene, Oreg.) were used at a final concentration of 5.0×10^−4 percent solids. For experiments involving only healthy RBCs, fresh whole blood (Research Blood Components, Brighton, Mass.) was used at 100 times dilution (i.e. 1 μl whole blood with 99 μl stock solution). For experiments involving parasitized cells, 1 ml of cultured cells were spun down at 1,000 rpm for 5 minute; 1 μl of the pellet was then aliquot to 200 μl stock solution.
# 10 μl of 1×10^−6M thiazole orange Orange (Invitrogen, Carlsbad, Calif.), which stains the RNA of the cell, was added to the aforementioned 200 μl iRBC solution 20 minutes before the experiment. The infected cells would appear fluorescent under the GFP filter set whereas the uninfected cells were seen as dark shadows.
# To control the ambient temperature, the microscope surface was replaced by a heating chamber (Olympus), which was preheated to a desired temperature range (i.e. 30-40° C.) for 30 minutes before the beginning of every experiment. Meanwhile, the PBS-BSA stock solution was injected into the device to coat the PDMS walls to prevent adhesion. This filling step need not be done inside the heating chamber, but the PBS-BSA filled device needed to be placed into the heating chamber at least 5 minutes before loading 10 μL of diluted blood sample. During temperature calibration phase, a thermal meter was used to probe the exact temperature inside the heating chamber. When the temperature needed to be adjusted to a different value, at least 5 minutes of waiting time was required to ensure a new stable ambient temperature.
# To apply a constant pressure gradient across the device, the pressure difference between inlet and outlet reservoir was generated hydrostatically by fixing the difference between inlet and outlet water column height (FIG. 55A).
# To capture the movement of RBCs inside the microchannels, a CCD camera (Hamamatsu Photonics, C4742-80-12AG, Japan) was connected to the inverted fluorescent microscope (Olympus IX71, Center Valley, Pa.). Images were automatically acquired by IPLab (Scanalytics, Rockville, Md.) at 100 ms time interval and the post-imaging analysis was done using imageJ. The mobility of individual RBCs was defined as the distance the cells moved divide by the time in seconds.
# [2] = system: RBCs; assay: Deformability cytometer: velocity/passage of glutaraldehyde-treated RBCs through constriction channels; assay type: cell-based, human
# Experimental: FIG. 5B depicts the results of an experiment evaluating the velocity at different glutaraldehyde concentrations of RBCs moving through the two pore geometries. RBCs were treated with the indicated concentrations of glutaraldehyde for 30 minutes in PBS and then washed 3 times. The pressure difference/length was approximately 0.61 Pa/μm.
# PBS was mixed with 0.2% w/v Pluronic F-108 (BASF, Mount Olive, N.J.) and 1% w/v Bovine Serum Albumin (BSA) (Sigma-Aldrich, St. Louis, Mo.) as a stock solution to prevent RBC adhesion to the device walls. For the fluorescent bead experiments, 200 nm FluoSpheres europium luminescent microspheres (Molecular Probes, Eugene, Oreg.) diluted to a final concentration of 1.25×10^−5 percent solids were used.
# In experiments involving blood, 1 μl of whole blood (−50% hematocrit) was diluted in 100 μl of the PBS-pluronic-BSA solution for all of the experiments. In experiments involving parasites that express GFP, no further treatment was performed. In experiments involving healthy RBCs, 1 μl of whole blood (Research Blood Components, Brighton, Mass.), 1 μl of 50 μg/ml of Cell Tracker Orange (Invitrogen, Carlsbad, Calif.), and 98 μl of PBS were mixed with the indicated concentration of glutaraldehyde and allowed to sit for 30 minutes. The sample was then washed 3 times with the PBS-Pluronic-BSA solution. In experiments involving reticulocytes, 1 μl of whole blood, 89 μl of the PBS-Pluronic-BSA solution, and 10 μl of 1×10^−6M thiazole orange were mixed and allowed to sit for 20 minutes before starting experiments. Videos were obtained in which reticulocytes appear as uniformly fluorescent cells under the GFP filter set, while mature RBCs appear as shadows.
# The PBS-Pluronic-BSA solution was pumped through the device for 30 minutes to coat the device walls with Pluronic and BSA. The RBC-PBS-Pluronic-BSA suspension was then injected into the device. Differences in pressure between the two reservoirs were generated hydrostatically by a difference in water column height. […]
# [3] = system: WAS−/− T cells; assay: In vitro Transwell cell migration toward CCL19; assay type: cell-based, mouse; settings: after seven hours of exposure to CCL19 (100 ng/mL), 5-μm pore Transwell
# Experimental: Cells from the peripheral lymph nodes and the spleen of Balb/c mice and WAS−/− mice on Balb/c background were pooled and enriched using the EasySep Mouse CD8+ T Cell Enrichment Kit from STEMCELL Technologies (British Columbia, Canada). Enrichment was confirmed using fluorescence-activated cell sorting (FACS) by staining the cells with FITC/anti-Thy1.2 and PE/anti-CD8α antibodies (Abs). The memory T cell population was assessed by evaluating the expression of CD44 and CD62L via FACS. T cells in an activation medium with 100 units/mL IL-2 and 1% anti-CD28 Ab were activated by plate-bound anti-CD3 Abs for 4 day at 37° C. The activation medium included RPMI with 10% FBS, 10 mM HEPES (1M), 1% NEAA, 1% sodium pyruvate (100 mM), 50 μM (β-mercaptoethanol, 4 mM L-glutamine, and 100 μg/mL Pen/Strep. Cell activation was verified via FACS measurement of CD25. Enriched WT and WAS−/− T cells in DMEM with 1% BSA and 0.1% Pen/Strep were induced to migrate through polycarbonate Transwell inserts (Costar, Cambridge, Mass.) with 5-μm pores in a 24-well plate toward a CCL19 chemokine source (R&D Systems, Minneapolis, Minn.). Inserts contained 5×10^5 cells in 100 μL of medium, and wells contained 1 mL of medium with either no CCL19 or 100 ng/mL of CCL19. Cells were allowed to migrate for ˜7 hours at 37° C., and those that crossed the membrane were collected and used for MPA studies.
# [4] = system: WT T cells; assay: Micropipette aspiration of CCL19-stimulated migratory T cells; assay type: cell-based, mouse
# Experimental: Enriched WT and WAS−/− T cells in DMEM with 1% BSA and 0.1% Pen/Strep were induced to migrate through polycarbonate Transwell inserts (Costar, Cambridge, Mass.) with 5-μm pores in a 24-well plate toward a CCL19 chemokine source (R&D Systems, Minneapolis, Minn.). Inserts contained 5×10^5 cells in 100 μL of medium, and wells contained 1 mL of medium with either no CCL19 or 100 ng/mL of CCL19. Cells were allowed to migrate for ˜7 hours at 37° C., and those that crossed the membrane were collected and used for MPA studies.
# 3×10^5 cells in 100 μL RPMI with 10% FBS and 1% HEPES was stained with 10 μL trypan blue. The mixture was added to 600 μL of either the RPMI medium or the T cell activation medium with IL-2 for naïve and activated T cell testing. Migratory T cells were tested in the medium used for migration. The MPA device was based on the design of Hochmuth et al (18). The aspiration rate and volume were 36 mL/hr and 2 mL, corresponding to a total pressure of ˜400 Pa. The cell movement in the micropipette was recorded with a CCD camera. Aspirations were performed at approximately room temperature.
# MPA data were fitting using the half-space model (77) described by the expressions: […]
# [5] = system: WT T cells; assay: FACS analysis of phenotype of T cells induced to migrate by CCL19; assay type: cell-based, mouse; settings: after CCL19 exposure (100 ng/mL) for seven hours
# Experimental: FIG. 68 depicts results of a FACS analysis of phenotype of naïve WT T cells induced to migrate by the chemokine CCL19. T cells were first gated on PI to exclude dead cells. The cell samples tested were naïve T cells not exposed to CCL 19 (A, D), cells that remained in the insert after CCL19 exposure (100 ng/mL) for seven hours (B, E), and cells that migrated across the insert membrane after the same chemokine treatment (C, F).
# Cells from the peripheral lymph nodes and the spleen of Balb/c mice and WAS−/− mice on Balb/c background were pooled and enriched using the EasySep Mouse CD8+ T Cell Enrichment Kit from STEMCELL Technologies (British Columbia, Canada). Enrichment was confirmed using fluorescence-activated cell sorting (FACS) by staining the cells with FITC/anti-Thy1.2 and PE/anti-CD8α antibodies (Abs). The memory T cell population was assessed by evaluating the expression of CD44 and CD62L via FACS. T cells in an activation medium with 100 units/mL IL-2 and 1% anti-CD28 Ab were activated by plate-bound anti-CD3 Abs for 4 day at 37° C. The activation medium included RPMI with 10% FBS, 10 mM HEPES (1M), 1% NEAA, 1% sodium pyruvate (100 mM), 50 μM (β-mercaptoethanol, 4 mM L-glutamine, and 100 μg/mL Pen/Strep. Cell activation was verified via FACS measurement of CD25.
molecule,measurement,setting,value
C[C@H]1[C@H](OC(=O)CCC(=O)O)O[C@@H]2O[C@@]3(C)CC[C@H]4[C@H](C)CC[C@@H]1[C@@]24OO3 [artesunate],mobility decrease,[1]; 2 and 4 hours after artesunate treatment,smaller and less pronounced mobility decrease
same,mobility decrease,"[1]; 6 hours after artesunate treatment, 0.01, 0.05 or 0.1 μg/ml",30%-50%
same,separation resolution between iRBCs and uRBCs,[1],almost doubled
same,separation resolution between iRBCs and uRBCs,[1]; listed as Artesunate,doubled
same,effect on RBC deformability (cell mobility),[1],stiffening effect on both iRBCs and uRBCs
same,effect on RBC deformability (cell mobility),[1]; listed as Artesunate,significant decrease in cell mobility
O=CCCCC=O [glutaraldehyde],RBC stiffness / velocity with increasing glutaraldehyde concentration,"[2]; 30 minutes treatment in PBS, approximately 0.61 Pa/μm",progressively stiffer with decreasing velocity
same,RBC passage at high glutaraldehyde concentration,[2]; glutaraldehyde concentrations greater than 0.003%,most RBCs were held up at the entrance to the channel
same,RBCs passed through the channels,"[2]; glutaraldehyde concentrations less than 0.002%, treatment for 30 minutes",more than 95%
B1,cells migrated,[3],~6.4%
same,reduction of modulus from the value measured in the absence of CCL19,[4],more than 2 times
same,migrating cells stained CD62L high and CD44 low (naive phenotype),[5],~90%

# — patent US20110289043A1, “COMPUTATIONAL METHODS AND COMPOSITIONS” (Brown University Research Foundation, priority 2010, published 2011)
